Laboratory results from paper PMC11968506, “Toxicokinetics and analytical toxicology of the phenmetrazine-derived new psychoactive substance 3,4-methylenedioxyphenmetrazine studied by means of in vitro systems” (Archives of Toxicology, 2025).

Columns and labels:
CYP2C19 = CYP2C19 (Homo sapiens, UniProt P33261); test: CYP inhibition cocktail assay in pHLM, CYP2C19 (omeprazole); conditions: inhibitor 20 µM
Description: (§1) A modified dual-cocktail based method (Dinger et al. [2014b]) was used. Substrate cocktail A consisted of 8.9 µM dextromethorphan (CYP2D6), 86 µM testosterone (CYP3A4), 3.5 µM diclofenac (CYP2C9), and 12 µM phenacetin (CYP1A2). Substrate cocktail B included 30 µM bupropion (CYP2B6), 2 µM amodiaquine (CYP2C8) and 21 µM omeprazole (CYP2C19). Substrate concentrations were near their respective Michaelis–Menten constant (Km) values (Dinger et al. [2014a]) and all concentrations are final. Enzyme inhibition was investigated using a positive control, a test group, a control group, an interference group, and a negative control. In the test group, specific inhibitors were replaced by MDPM (20 µM). Instead of inhibitors, phosphate buffer was used in the control group. Enzymes were replaced with phosphate buffer in the negative control group. The interference group was incubated like the control group, but the reaction was stopped with 20 µM MDPM in acetonitrile, also containing 2.5 µM trimipramine-d3. All groups were incubated with a NADPH-regenerating system, consisting of 5 mM isocitrate, 2 U/mL isocitrate dehydrogenase, 5 mM Mg^2+, and 1.2 mM NADP^+. Further, substrate cocktail A or B, 90 mM phosphate buffer (pH 7.4), and 200 U/mL superoxide dismutase were added to each group. […] All groups were preincubated for 10 min at 37 °C. Then, pHLM (0.4 mg microsomal protein/mL) was added to each group except the negative control. Incubations were done for 15 min at 37 °C. Therefore, 50 µL of acetonitrile (− 20 °C) containing 2.5 µM trimipramine-d3 as internal standard was added. Incubations were done in triplicates and organic solvent in the incubation mixture was below 1% (Chauret et al. [1998]). Afterwards the samples were vortexed and centrifuged for 2 min at 18,407×g. 70 µL of the supernatant were transferred to autosampler vials and 10 µL were injected onto the LC-HRMS/MS system. Enzyme inhibition was evaluated by metabolite formation. […] The following settings were used: unpaired; one-tailed; significance level, 0.05; confidence intervals, 99%.

[1] = In vitro half-life by substrate depletion in pHLS9; assay type: in vitro ADME; conditions: human, pooled human liver S9 fraction (pHLS9), pHLS9, 25 µM substrate, sampling 0-180 min, read-out: in vitro half-life (t1/2)
Description: Incubations with pHLS9 were performed in accordance with previous publications and minor adjustments (Richter et al. [2017]). First, 25 μg/mL alamethicin (UGT reaction mix B), pHLS9 (2 mg microsomal protein/mL), 0.1 mM AcCoA, 2.3 mM acetylcarnitine, 8 U/mL carnitine acetyltransferase, 2.5 mM isocitrate, 0.8 U/mL isocitrate dehydrogenase, 100 U/mL superoxide dismutase, 0.6 mM NADP^+ and 2.5 mM Mg^2+ were preincubated for 10 min at 37 °C. Then, 2.5 mM UDP-glucuronic acid (UGT reaction mix A), 40 µM PAPS, 1.2 mM SAM, 1 mM DTT and 10 mM GSH were added. The reaction was started by adding the respective substrate MDPM, MDMA, or quetiapine (25 µM each). MDMA and quetiapine were incubated as positive controls. Negative control samples without enzymes and blank samples without substrates were incubated to identify not metabolically formed compounds and to confirm the absence of interfering compounds. […] Aliquots (50 µL) were transferred to a new reaction tube after 60 and 360 min. […] Samples were vortexed, stored at − 20 °C for 30 min, and centrifuged for 2 min at 18,407×g.
Incubations to investigate in vitro half-life were performed under the same incubation conditions as described above and done in duplicate. […] A t-test was performed to compare absolute peak areas of the incubation group and the control group at 0 min. […]
In vitro half-life was determined by measuring substrate depletion. […]

CYP2D6 = CYP2D6 (Homo sapiens, UniProt P10635); test: CYP inhibition cocktail assay in pHLM, CYP2D6 (dextromethorphan)
Description: as §1

CYP2C8 = molecular target: T1, CYP2C8 (Homo sapiens, UniProt P10632); test: CYP inhibition cocktail assay in pHLM, CYP2C8 (amodiaquine); conditions: inhibitor 20 µM
T1 sequence (P10632 1-490): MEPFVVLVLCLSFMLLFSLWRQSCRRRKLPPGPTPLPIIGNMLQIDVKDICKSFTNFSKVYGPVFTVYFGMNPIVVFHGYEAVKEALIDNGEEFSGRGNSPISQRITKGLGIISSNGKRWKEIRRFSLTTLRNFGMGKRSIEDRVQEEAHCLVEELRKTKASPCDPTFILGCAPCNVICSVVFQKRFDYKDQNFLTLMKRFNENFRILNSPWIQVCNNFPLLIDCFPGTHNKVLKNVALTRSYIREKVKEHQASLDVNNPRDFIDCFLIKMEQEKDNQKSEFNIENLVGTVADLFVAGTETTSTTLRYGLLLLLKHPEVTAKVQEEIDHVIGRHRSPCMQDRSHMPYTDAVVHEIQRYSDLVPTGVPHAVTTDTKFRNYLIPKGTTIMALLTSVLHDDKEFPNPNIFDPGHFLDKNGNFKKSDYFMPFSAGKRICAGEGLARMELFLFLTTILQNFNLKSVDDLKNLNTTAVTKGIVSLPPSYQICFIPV
Description: as §1

Sequence of CYP2D6 (P10635 whole entry): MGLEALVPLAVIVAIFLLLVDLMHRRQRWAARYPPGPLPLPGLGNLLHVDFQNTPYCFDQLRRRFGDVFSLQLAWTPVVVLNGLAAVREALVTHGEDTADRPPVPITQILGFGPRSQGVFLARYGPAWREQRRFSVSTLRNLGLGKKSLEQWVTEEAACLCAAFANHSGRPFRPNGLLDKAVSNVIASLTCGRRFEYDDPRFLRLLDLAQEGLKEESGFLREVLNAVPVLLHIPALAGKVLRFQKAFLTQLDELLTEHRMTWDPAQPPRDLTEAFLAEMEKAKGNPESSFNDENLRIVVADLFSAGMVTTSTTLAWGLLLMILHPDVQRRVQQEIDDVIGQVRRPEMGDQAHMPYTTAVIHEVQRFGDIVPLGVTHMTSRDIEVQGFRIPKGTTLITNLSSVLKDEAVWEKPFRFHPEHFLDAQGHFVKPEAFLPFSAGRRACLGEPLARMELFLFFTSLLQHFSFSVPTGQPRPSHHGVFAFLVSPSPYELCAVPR
Sequence of CYP2C19 (P33261 whole entry): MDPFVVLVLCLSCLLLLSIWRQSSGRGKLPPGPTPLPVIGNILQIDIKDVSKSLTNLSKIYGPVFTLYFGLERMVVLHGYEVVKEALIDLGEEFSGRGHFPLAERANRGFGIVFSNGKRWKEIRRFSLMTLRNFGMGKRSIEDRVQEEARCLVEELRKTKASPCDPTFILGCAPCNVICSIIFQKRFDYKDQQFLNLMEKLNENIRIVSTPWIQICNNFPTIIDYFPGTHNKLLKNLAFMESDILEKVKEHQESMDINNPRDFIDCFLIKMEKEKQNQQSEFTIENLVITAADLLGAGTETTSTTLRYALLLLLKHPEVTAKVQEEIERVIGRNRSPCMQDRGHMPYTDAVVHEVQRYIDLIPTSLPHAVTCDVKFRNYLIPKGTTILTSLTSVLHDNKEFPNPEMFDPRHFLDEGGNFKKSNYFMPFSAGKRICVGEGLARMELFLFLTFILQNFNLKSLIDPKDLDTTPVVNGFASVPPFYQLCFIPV

SMILES: CC1NCCOC1c1ccc2c(c1)OCO2 (stereo not shown) [MDPM, 2-(1,3-benzodioxol-5-yl)-3-methylmorpholine]
- CYP2C19 metabolite formation (CYP2C19; omeprazole 21 µM, pHLM 0.4 mg/mL, 15 min, control without inhibitor = 100%): 86%
- inhibition of CYP2C19 (CYP2C19; omeprazole, pHLM, t-test versus control): no significant inhibition
- half-life at 25 µM [1]: > 3 h
- inhibition at 15 min, 20 µM (CYP2D6; human, pH 7.4): 77%
- CYP2D6 metabolite formation (CYP2D6; inhibitor 20 µM, dextromethorphan 8.9 µM, pHLM 0.4 mg/mL, 15 min, control without inhibitor = 100%): 23%
- CYP2C8 metabolite formation (CYP2C8; amodiaquine 2 µM, pHLM 0.4 mg/mL, 15 min, control without inhibitor = 100%): 105%
- inhibition of CYP2C8 (CYP2C8; amodiaquine, pHLM, t-test versus control): no significant inhibition
